Assay [1] deals with T1, Arabidopsis thaliana BIO3-BIO1 (BioDA) mutants (Arabidopsis thaliana, UniProt B0F481, A507K).
T1 construct: with the predicted N-terminal mitochondrial transit peptide removed; 6xHis-tag (N); thrombin cleavage site (N); made in house; host or cells: E. coli BL21 (DE3) bioA
Description: BIO3-BIO1 mutant enzyme activity in the presence of herbicide, percentage inhibition (fluorometric DAPA assay). In kind it is biochemical. The note with it: read-out: percentage inhibition. The method, boiled down:
(§1)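 His-tagged Arabidopsis BIO3-BIO1 mutants, expressed in E. coli and purified by IMAC and SEC, were preincubated at 50 nM with herbicide for 10 min at 20 °C in EPPS pH 8.6 with pyridoxal phosphate. Reaction with 100 μM spermidine and 20 μM KAPA ran 75 min at 20 °C; DAPA was derivatised with o-phthalaldehyde and read at ex 410/em 470 nm. […].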

The target of assay [2] is T2, Arabidopsis thaliana BIO3-BIO1 (BioDA) mutants (Arabidopsis thaliana, UniProt B0F481, A507S).
T2 construct: with the predicted N-terminal mitochondrial transit peptide removed; 6xHis-tag (N); thrombin cleavage site (N); made in house; host or cells: E. coli BL21 (DE3) bioA
The description is as above. The note with it: read-out: percentage inhibition. The class given is biochemical. In a few lines:
as §1

Assay [3] concerns the target T3, Arabidopsis thaliana BIO3-BIO1 (BioDA) mutants (Arabidopsis thaliana, UniProt B0F481, DEL508-508).
T3 construct: with the predicted N-terminal mitochondrial transit peptide removed; 6xHis-tag (N); thrombin cleavage site (N); made in house; host or cells: E. coli BL21 (DE3) bioA
Described as above. In kind it is biochemical. The note with it: read-out: percentage inhibition. The method, boiled down: as §1

The target in assay [4] is T4, Arabidopsis thaliana BIO3-BIO1 (BioDA) mutants (Arabidopsis thaliana, UniProt B0F481, Q506A).
T4 construct: with the predicted N-terminal mitochondrial transit peptide removed; 6xHis-tag (N); thrombin cleavage site (N); made in house; host or cells: E. coli BL21 (DE3) bioA
The assay is described as above. The conditions noted are these: read-out: percentage inhibition. In kind it is biochemical. In a few lines: as §1

The next assay relates to Wildtype Samsun tobacco. The assay can be described thus: Visual herbicide damage score on wild-type tobacco plants after spraying. The class given is in vivo. The conditions noted are these: for percentage of damage: 600 gai/ha, one WT plant. The source says:
(§2) Populations of transgenic tobacco comprising 20-30 transgenic events per plant transformation constructs were generated as described in Example 1. These lines were clonally propagated and 1 clone per event was sprayed with 600 g ai/ha compound L or A+0.2% Genapol X080 with a spray volume of 200 L/Ha (“g ai/ha” refers to grams of active compound per hectare).
A score of 0 indicates no visible damage or stunting whereas a score of 100 indicates a complete death of the plant. 20 transgenic events (i.e. individual transgenic plants) from each GM tobacco line were transplanted to soil 1 week prior to spraying with BIO3-BIO1inhibiting compounds. WT tobacco was included as a control. […]

Assay [5] concerns D4597 (Arabidopsis thaliana BIO3-BIO1 G700S) containing tobacco plants. Description: Visual herbicide damage score on transgenic tobacco D4597 (pCMP AtBioDA G700S). In kind it is in vivo. The note with it: 600 gai/ha; 7 DAT; each table row is one D4597 transgenic plant.
Text: as §2
(§3) Herbicidal damage was visually assessed across the population and a herbicide damage score given at 7, 14 and 21 days. A score of 0 indicates no visible damage or stunting whereas a score of 100 indicates a complete death of the plant. 20 transgenic events (i.e. individual transgenic plants) from each GM tobacco line were transplanted to soil 1 week prior to spraying with BIO3-BIO1inhibiting compounds. WT tobacco was included as a control.
(§4) To determine if overexpression of variants detailed in Example 7 confer resistance to BIO3-BIO1 inhibiting compounds when expressed in plants, GM tobacco lines were produced using the methods in Example 1 and tested with BIO3-BIO1 inhibiting compounds.
(§5) Transgenic tobacco plants expressing the Arabidopsis thaliana BIO3-BIO1 variants C388D (SEQ ID NO:26), P421L(SEQ ID NO:41), F348C (SEQ ID NO:28), G700S (SEQ ID NO:39), W392S (SEQ ID NO:70) and the Zea mays BIO3-BIO1 variant C372D (SEQ ID NO:324). Populations of transgenic tobacco were sprayed and assessed as in Example 2

Assay [6] deals with D4604 (Arabidopsis thaliana BIO3-BIO1 W392S) containing tobacco plants. Description: Visual herbicide damage score on transgenic tobacco D4604 (pCMP AtBioDA W392S). The class given is in vivo. The conditions noted are these: 600 gai/ha, each table row is one D4604 transgenic plant.
Text: as §2, §3, §4, §5

The structures appear in SMILES notation. Values joined by “and” are separate entries in the source; they are usually repeats but may differ in a detail not shown here. Equal values may be shown once.

T1 sequence (B0F481 23-833 A507K): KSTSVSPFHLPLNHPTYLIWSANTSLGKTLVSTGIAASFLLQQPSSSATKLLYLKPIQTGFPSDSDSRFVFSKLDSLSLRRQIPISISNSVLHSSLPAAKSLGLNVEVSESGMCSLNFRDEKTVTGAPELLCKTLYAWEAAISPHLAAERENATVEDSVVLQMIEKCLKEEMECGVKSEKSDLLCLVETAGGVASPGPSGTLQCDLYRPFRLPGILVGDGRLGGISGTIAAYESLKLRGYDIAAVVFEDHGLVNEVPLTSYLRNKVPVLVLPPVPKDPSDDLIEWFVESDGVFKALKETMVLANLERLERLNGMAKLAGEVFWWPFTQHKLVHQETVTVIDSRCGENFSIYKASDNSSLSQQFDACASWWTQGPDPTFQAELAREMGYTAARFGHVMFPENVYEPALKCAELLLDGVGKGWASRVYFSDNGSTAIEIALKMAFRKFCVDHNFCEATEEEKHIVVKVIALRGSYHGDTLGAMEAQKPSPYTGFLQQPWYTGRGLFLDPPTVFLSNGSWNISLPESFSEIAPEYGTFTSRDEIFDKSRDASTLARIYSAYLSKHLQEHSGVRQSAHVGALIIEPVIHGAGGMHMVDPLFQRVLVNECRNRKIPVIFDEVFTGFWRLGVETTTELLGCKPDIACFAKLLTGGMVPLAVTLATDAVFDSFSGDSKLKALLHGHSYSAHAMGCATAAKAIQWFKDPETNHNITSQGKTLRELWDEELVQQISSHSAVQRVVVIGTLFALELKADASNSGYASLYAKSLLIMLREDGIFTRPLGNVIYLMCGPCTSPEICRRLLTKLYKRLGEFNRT
T4 sequence (B0F481 23-833 Q506A): as the sequence (B0F481 23-833 A507K) above, with Q484A, K485A counted along it
T3 sequence (B0F481 other isoform, or with tags, fused parts or gaps DEL508-508): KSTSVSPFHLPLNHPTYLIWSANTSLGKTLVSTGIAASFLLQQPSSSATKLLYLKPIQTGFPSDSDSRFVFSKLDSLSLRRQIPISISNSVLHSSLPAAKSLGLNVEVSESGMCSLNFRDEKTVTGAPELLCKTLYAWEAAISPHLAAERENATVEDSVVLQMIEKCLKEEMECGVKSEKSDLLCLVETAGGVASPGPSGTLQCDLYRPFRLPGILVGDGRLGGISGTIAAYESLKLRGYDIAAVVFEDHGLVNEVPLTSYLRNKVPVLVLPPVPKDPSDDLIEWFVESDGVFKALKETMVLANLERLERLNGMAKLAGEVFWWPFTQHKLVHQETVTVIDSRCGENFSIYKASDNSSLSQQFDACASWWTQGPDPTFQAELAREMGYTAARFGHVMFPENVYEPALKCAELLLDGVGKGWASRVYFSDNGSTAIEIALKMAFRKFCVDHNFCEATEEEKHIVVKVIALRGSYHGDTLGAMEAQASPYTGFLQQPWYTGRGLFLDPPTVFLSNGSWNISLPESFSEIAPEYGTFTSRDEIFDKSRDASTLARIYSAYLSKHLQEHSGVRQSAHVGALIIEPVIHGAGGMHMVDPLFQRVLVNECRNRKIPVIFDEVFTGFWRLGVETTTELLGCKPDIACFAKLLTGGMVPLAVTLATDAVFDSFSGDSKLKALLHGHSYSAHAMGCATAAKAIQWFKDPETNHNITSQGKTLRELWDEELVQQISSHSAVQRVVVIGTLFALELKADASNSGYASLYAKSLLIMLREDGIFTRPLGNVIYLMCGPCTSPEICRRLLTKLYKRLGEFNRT
T2 sequence (B0F481 23-833 A507S): as the sequence (B0F481 23-833 A507K) above, with K485S counted along it

Take `CCOC(=O)c1nn(-c2ccc3c(c2)OC(F)(F)C(F)(F)O3)c2cccc(C(C)=O)c2c1=O` [Compound A, ethyl 5-acetyl-4-oxo-1-(2,2,3,3-tetrafluoro-1,4-benzodioxin-6-yl)cinnoline-3-carboxylate]: the inhibition at 1 µM in assay [1] was determined as 81%; in assay [2], 63%; in assay [3] it was 22%; in assay [4], 0%.
In the case of `CCn1c(Cn2ccc(C(F)(F)F)n2)cc(=O)c(C(=O)O)c1-c1ccc(Cl)c(Cl)c1` [Compound L, 2-(3,4-dichlorophenyl)-1-ethyl-4-oxo-6-[[3-(trifluoromethyl)pyrazol-1-yl]methyl]pyridine-3-carboxylic acid], the percentage of damage in the assay with Wildtype Samsun tobacco (7 DAT) is 55% and 40% and 45% and 50%; with Wildtype Samsun tobacco (14 DAT) it was 80% (2×) and 85% and 75%; in the assay on Wildtype Samsun tobacco (21 DAT) it was 90% and 75% and 85%; in assay [5] it was 10%; in assay [6] (14 DAT) it was 70%; in assay [6] (21 DAT) it was 80%. Moreover, the “growth of representative wild type tobacco plant after treatment (photograph, FIG. 6)” value with Wildtype Samsun tobacco (compound L 600 gai/ha, 28 days post treatment, compared to Event 8307 (pBin TMV EcBioA) and Event 8402 (pBin TMV MTP EcBioA)) is reported as “significantly stunted growth”.

Values taken from US20260226493A1, “HERBICIDE RESISTANT PLANTS” (SYNGENTA CROP PROTECTION AG, priority 2023, published 2026).
